In the NIST ThermoML archive (doi:10.1016/j.fluid.2015.05.002):

Details: Liquid; for mass density: 295 K, 101.33 kPa, Vibrating tube method; for vapor or sublimation pressure: Closed cell (Static) method

CC1CCCO1 (stereo not given) [2-methyltetrahydrofuran]
Details	mass density [kg/m3]	vapor or sublimation pressure [kPa]
–	851.6	–
368.95 K	–	163
372.89 K	–	181
377.88 K	–	207
382.89 K	–	237
387.86 K	–	268
392.93 K	–	304
398.03 K	–	344
403.02 K	–	386
408.05 K	–	432
413.07 K	–	483
418.08 K	–	538
423.11 K	–	597
428.18 K	–	661
433.16 K	–	730
438.19 K	–	804
443.19 K	–	883
448.17 K	–	968
453.22 K	–	1060
458.19 K	–	1157
463.25 K	–	1262
468.25 K	–	1372
473.2 K	–	1489
483.25 K	–	1746
493.28 K	–	2035
503.24 K	–	2358
508.21 K	–	2532

CC(C)CC(C)(C)C [2,2,4-trimethylpentane]
Details	mass density [kg/m3]	vapor or sublimation pressure [kPa]
–	690.4	–
388.02 K	–	163
392.98 K	–	184
398.09 K	–	208
403.09 K	–	233
408.08 K	–	262
413.12 K	–	293
418.11 K	–	326
423.15 K	–	362
428.13 K	–	401
433.09 K	–	442
438.15 K	–	488
443.1 K	–	536
448.13 K	–	589
453.09 K	–	644
458.11 K	–	704
463.05 K	–	769
468.08 K	–	837
473.08 K	–	911
483.1 K	–	1072
493.14 K	–	1255
503.18 K	–	1459
508.17 K	–	1571

Cc1ccco1 [2-methylfuran]
Details	mass density [kg/m3]	vapor or sublimation pressure [kPa]
–	916.7	–
353.1 K	–	167
358.07 K	–	194
363.06 K	–	224
368.02 K	–	257
372.97 K	–	294
377.98 K	–	334
382.99 K	–	379
387.96 K	–	427
392.97 K	–	480
397.93 K	–	538
402.98 K	–	600
407.95 K	–	670
412.96 K	–	743
417.96 K	–	823
422.94 K	–	909
427.97 K	–	1001
432.93 K	–	1099
437.97 K	–	1206
442.93 K	–	1319
447.95 K	–	1442
452.97 K	–	1571
457.97 K	–	1710
462.96 K	–	1856
467.96 K	–	2013
472.97 K	–	2179
482.96 K	–	2541
492.93 K	–	2947
502.93 K	–	3403
507.92 K	–	3651
